Data on two molecules can be found in patent US8147872B2, “Pharmaceutical compositions of drugs and neutralized acidic polymers” (Bend Reseach, Inc., priority 2001, dated 2012).

Data set [1] can be described thus: In vitro dissolution test of Drug 2 compositions in PBS pH 6.5 (microcentrifuge method, HPLC). The data set is classed as physicochemical. The arrangement: AUC90: tested at 2000 µg/mL. On the procedure: (§1) For this test, 14.4 mg of the dispersion was added to a microcentrifuge tube for a total Drug 2 concentration of approximately 2000 μg/mL if all of the drug were to dissolve completely. The tube was placed in a 37° C. temperature-controlled chamber, and 1.8 mL PBS as pH 6.5 and 290 mOsm/kg was added. The samples were quickly mixed using a vortex mixer for about 60 seconds. The samples were centrifuged at 13,000 G at 37° C. for 1 minute. The resulting supernatant solution was then sampled and diluted 1:6 (by volume) with methanol and then analyzed by high-performance liquid chromatography (HPLC). The contents of the tubes were mixed on the vortex mixer and allowed to stand undisturbed at 37° C. until the next sample was taken. Samples were collected at 4, 10, 20, 40, 90, and 1200 minutes.
For comparison, a Control C4 consisting of 3.6 mg of crystalline Drug 2 was added to PBS for a total concentration of 2000 μg/mL.
For this test, 14.4 mg of the dispersion was added to a microcentrifuge tube for a total Drug 2 concentration of approximately 2000 μg/mL if all of the drug were to dissolve completely. The dissolution test was performed as described in Example 9. Control C4 (consisting of 3.6 mg of crystalline Drug 2) is shown again for comparison.

Data set [2] is described as follows: In vitro dissolution test of Drug 3 compositions in PBS with 0.5 wt % NaTC/POPC. The data set is classed as physicochemical. As to conditions: for Drug 3 Concentration: approx. 200 μg/mL if all dissolved. The method, then: as §1
For these tests, 1.44 mg of each dispersion was added to a microcentrifuge tube containing PBS with 0.5 wt % sodium taurocholic acid and 1-palmitoyl-2-oleyl-sn-glycero-3-phosphocholine (“NaTC/POPC,” with a 4/1 weight ratio), for a total Drug 3 concentration of approximately 200 μg/mL if all of the drug were to dissolve completely. For Controls C5, C6, and C7 (with Drug 3B), 1.57 mg of each dispersion was added to PBS containing 0.5 wt % NaTC/POPC to yield approximately 200 μg/mL of active Drug 3. Control C8 consisted of 0.36 mg of crystalline Drug 3A. The dissolution tests were performed as described in Example 9.

A word on the AUC: it is the area under the concentration-time curve, a measure of exposure.

For the molecule `O=C(N[C@@H](Cc1ccccc1)[C@@H](O)C(=O)N1C[C@@H](O)[C@@H](O)C1)c1cc2cc(Cl)ccc2[nH]1` [Example C4, 5-chloro-1H-indole-2-carboxylic acid[(1S)-benzyl-3-((3R,4S)-dihydroxypyrrolidin-1-yl)-(2R)-hydroxy-3-oxypropyl]amide], the AUC90 in data set [1] (Drug 2, PBS pH 6.5, 37° C.) is reported as 10,300 min * μg/mL. For the same molecule, the Cmax90 in data set [1] (Drug 2, PBS pH 6.5, 37° C.) is 131 µg/mL. The AUC in data set [1] (Table 4, time 0 min, PBS pH 6.5, 37° C.) was determined as 0 µg·h/mL; in data set [1] (Table 4, time 4 min, PBS pH 6.5, 37° C.), 5 µg·h/mL; in data set [1] (Table 4, time 10 min, PBS pH 6.5, 37° C.) it was 16.7 µg·h/mL; in data set [1] (Table 4, time 20 min, PBS pH 6.5, 37° C.), 36.7 µg·h/mL; in data set [1] (Table 4, time 40 min, PBS pH 6.5, 37° C.) it was 75 µg·h/mL; in data set [1] (Table 4, time 90 min, PBS pH 6.5, 37° C.), 172 µg·h/mL. The AUC in data set [1] (Table 4, time 1200 min, PBS pH 6.5, 37° C.) is 2000 µg·h/mL; in data set [1] (Table 5, AUC90 according to the text, PBS pH 6.5), 172 µg·h/mL; in data set [1] (time 0 min, PBS pH 6.5, 37° C.) it was 0 µg·h/mL; in data set [1] (time 4 min, PBS pH 6.5, 37° C.), 5 µg·h/mL; in data set [1] (time 10 min, PBS pH 6.5, 37° C.), 1,000 min * μg/mL; in data set [1] (time 20 min, PBS pH 6.5, 37° C.), 2,200 min * μg/mL. In addition, the AUC was 4,500 min * μg/mL in data set [1] (time 40 min, PBS pH 6.5, 37° C.); 10,300 min * μg/mL in data set [1] (time 90 min, PBS pH 6.5, 37° C.); 120,200 min * μg/mL in data set [1] (time 1200 min, PBS pH 6.5, 37° C.). Also, the “Drug 2 Concentration” value in data set [1] (Table 5, Cmax90 according to the text, PBS pH 6.5) came to 131 µg/mL; in data set [1] (time 0 min, PBS pH 6.5, 37° C., approx. 2000 μg/mL if all dissolved) it was 0 µg/mL; in data set [1] (time 4 min, PBS pH 6.5, 37° C., approx. 2000 μg/mL if all dissolved) it was 131 µg/mL; in data set [1] (time 10 min, PBS pH 6.5, 37° C., approx. 2000 μg/mL if all dissolved), 114 µg/mL; in data set [1] (time 20 min, PBS pH 6.5, 37° C., approx. 2000 μg/mL if all dissolved), 124 µg/mL; in data set [1] (time 40 min, PBS pH 6.5, 37° C., approx. 2000 μg/mL if all dissolved), 107 µg/mL. For the same molecule, the “Drug 2 Concentration” value in data set [1] (time 90 min, PBS pH 6.5, 37° C., approx. 2000 μg/mL if all dissolved) was determined as 126 µg/mL; in data set [1] (time 1200 min, PBS pH 6.5, 37° C., approx. 2000 μg/mL if all dissolved), 72 µg/mL.
Turning to `O=C1Cc2cc(CCN3CCN(c4nsc5ccccc45)CC3)c(Cl)cc2N1` [Example C8, ziprazidone], in data set [2] (Drug 3), the Cmax90 is 2 µg/mL. Further, the AUC in data set [2] (Drug 3, time 0 min) worked out at 0 µg·min/mL; in data set [2] (Drug 3, time 4 min), 0 µg·min/mL; in data set [2] (Drug 3, time 10 min) it was 0 µg·min/mL; in data set [2] (Drug 3, time 20 min), 0 µg·min/mL; in data set [2] (Drug 3, time 40 min), 0 µg·min/mL; in data set [2] (Drug 3, time 90 min), 100 µg·min/mL. Also, the AUC in data set [2] (Drug 3, time 1200 min) is 1,800 min * μg/mL; in data set [2] (Table 9, AUC90 according to the text, Drug 3) it was 100 µg·min/mL. The “Drug 3 Concentration” value was 0 µg/mL in data set [2] (time 0 min); 1 µg/mL in data set [2] (time 4 min); 1 µg/mL in data set [2] (time 10 min); 1 µg/mL in data set [2] (time 20 min); 2 µg/mL in data set [2] (time 40 min); 1 µg/mL in data set [2] (time 90 min). In data set [2] (time 1200 min), the “Drug 3 Concentration” value was 2 µg/mL.
